pIC50: −log10 of the molar value.
Key:
Glutamate NMDA receptor [1] = experiment: Compound was evaluated in vitro in a cortical-wedge preparation for the antagonism of N-methyl-D-aspartate-induced responses; type: functional
Rattus norvegicus = experiment: Tested for antagonism of NMDA induced convulsions in neonatal rats (ip) and minimum effective dose (MED) was reported; type: functional; conditions: read-out: MED
Mus musculus = experiment: Tested for antagonism of NMDA induced lethality in neonatal mice (ip) and minimum effective dose (MED) was reported; type: functional; conditions: read-out: MED
Glutamate NMDA receptor [2] = experiment: In vitro binding affinity against N-methyl-D-aspartate glutamate receptor using [3H]CGS-19,755 ligand; type: protein-complex assay

## O=C(O)[C@H]1C[C@@H](Cc2nnn[nH]2)CCN1
Glutamate NMDA receptor [1]
  pIC50: 5.38
Rattus norvegicus
  minimal effective dose: 20 mg/kg
Mus musculus
  minimal effective dose: 5 mg/kg

## O=C(O)[C@@H]1C[C@H](CCc2nn[nH]n2)CCN1
Glutamate NMDA receptor [2]
  pIC50: 5.64
Glutamate NMDA receptor [1]
  pIC50: 5.09
Rattus norvegicus
  minimal effective dose: 100 mg/kg
Mus musculus
  minimal effective dose: 20 mg/kg

## O=C(O)[C@@H]1C[C@H](CCCCc2nn[nH]n2)CCN1
Glutamate NMDA receptor [2]
  pIC50: < 5.00
Mus musculus
  minimal effective dose: > 160 mg/kg

## O=C(O)[C@@H]1C[C@H](CCCc2nn[nH]n2)CCN1
Glutamate NMDA receptor [1]
  pIC50: 4.91
Rattus norvegicus
  minimal effective dose: 100 mg/kg
Mus musculus
  minimal effective dose: 10 mg/kg

## O=C(O)[C@H]1C[C@H](Cc2nn[nH]n2)CCN1
Glutamate NMDA receptor [2]
  pIC50: 6.11
Glutamate NMDA receptor [1]
  pIC50: 4.45
Mus musculus
  minimal effective dose: 80 mg/kg

## CN1CC[C@H](Cc2nn[nH]n2)C[C@@H]1C(=O)O
Glutamate NMDA receptor [2]
  pIC50: < 5.00
Mus musculus
  minimal effective dose: > 160 mg/kg

## O=C(O)[C@@H]1C[C@H](CP(=O)(O)O)CCN1 [SELFOTEL]
Glutamate NMDA receptor [1]
  pIC50: 5.77
Rattus norvegicus
  minimal effective dose: 5 mg/kg
Mus musculus
  minimal effective dose: 1.25 mg/kg

Source: ChEMBL document CHEMBL1125760, “4-(Tetrazolylalkyl)piperidine-2-carboxylic acids. Potent and selective N-methyl-D-aspartic acid receptor antagonists with a short duration of action” (J Med Chem, 1991)
